Drawing on a melting point compilation (Tetko et al.), this text covers melting point for 121 compounds.

Take `CC(C)(C)c1nnc(CCl)o1`: the melting point lay in the range of 42 to 44 °C.
Then `CCOc1ccc2nc(-c3ccc(N)cc3)sc2c1`, with 203 to 205 °C; and `CC(C)(C)OC(=O)NC(C)(C)C(C)(C)C(=O)O`, with 125 to 127 °C.
For `O=Cc1c[nH]nc1-c1ccccc1F`, the melting point fell in the range of 114 to 116 °C.
Then `Nc1cc(S(=O)(=O)Nc2ccccc2Cl)ccc1Cl`, with 89 to 93 °C; and `CC(NC(=O)CCl)C(=O)O` (stereo unspecified), with 125 to 127 °C.
The figure for `CC(C)(C)S(=O)(=O)c1ccc(Br)cn1` is 116 to 118 °C; for `CCn1c(C)cc(C=O)c1C` it is 87 to 89 °C.
The figure for `Nc1nc2c(s1)COCC2` is 144 to 146 °C; for `Clc1nnc(-c2ccccc2)c2ccccc12` it is 156 to 158 °C.
`Nc1cccc(C(=O)N2CCC(O)CC2)c1` yielded a melting point of 128 to 130 °C.
Regarding `O=C(O)c1cc([N+](=O)[O-])ccc1N1CCCCC1`, the melting point was 194 to 196 °C.
Compound `Nc1nc2ccc(Br)cc2s1` returned a melting point of 119 to 121 °C.
The figure for `Cc1cc(C)c(O)c(C(=O)O)c1` is 172 to 174 °C; for `O=C1CSC(=S)N1c1cccnc1` it is 159 to 161 °C.
As for `Cc1nn(C)c(C)c1NC(=O)CCl`, the melting point was in the range of 107 to 109 °C.
Then `COc1ccc(C(=O)O)nc1I`, with 189 to 191 °C; and `O=C(O)c1ccc(OC2CCCC2)nc1`, with 165 to 167 °C.
Then `CC(C)(C)OC(=O)NCCCn1ccc2cc(C(=O)O)ccc21`, with 172 to 174 °C; and `Cc1cn(C2CC(O)C(CO)O2)c(=O)[nH]c1=O` (stereo unspecified), with 187 to 189 °C; and `Cc1c(NS(=O)(=O)c2cc(C(=O)O)cc(Cl)c2Cl)c(=O)n(-c2ccccc2)n1C`, with 155 to 157 °C.
Then `c1ccc2c(c1)NCCN2C1CC1`, with 58 to 60 °C; and `CS(=O)(=O)CC(=O)c1ccccc1F`, with 77 to 79 °C; and `COC(=O)c1sc(-c2ccccc2Cl)cc1N`, with 109 to 111 °C.
`NC(=S)c1ccc(Cl)c(Cl)c1` displayed a melting point of 136 to 138 °C.
The figure for `CC(N)c1ccc(-n2cncn2)cc1` (stereo unspecified) is 78 to 80 °C; for `Cc1nnc(-c2cccc(N)c2)o1` it is 136 to 138 °C; for `COC(=O)c1sc(S(=O)(=O)Cl)c(C(=O)OC)c1C` it is 88 to 92 °C.
Then `Cn1ccc(C(=O)N2CCC[C@H]2C(=O)O)cc1=O`, with 149 to 151 °C.
The figure for `O=C(O)Cc1ccc(S(=O)(=O)N2CCCC2)s1` is 262 to 264 °C.
The compound `CN1CCN(C2=c3ccccc3=Nc3ccc(Cl)cc3N2)CC1` came in with a melting point of 184 to 186 °C.
The figure for `CC(C)(C)n1cc(C#N)c(N)n1` is 121 to 123 °C; for `O=C(O)CNC(=O)c1cc(Cl)ccn1` it is 188 to 190 °C.
Then `Cc1cc(NC(=O)CN2CCNCC2)no1`, with 114 to 116 °C; and `Nc1c(Oc2ccc(Cl)cc2)ccc2ncccc12`, with 124 to 126 °C; and `Nc1ccnc(OC2CCCCC2)c1`, with 114 to 116 °C.
Then `Cc1ccc(S(=O)(=O)NC(C(=O)O)C(C)O)cc1` (stereo unspecified), with 177 to 179 °C; and `NS(=O)(=O)c1cccc(NC(=O)c2ccccc2Cl)c1`, with 93 to 96 °C; and `Cc1ccc(C(=O)N2CCOCC2)cc1N`, with 153 to 155 °C.
For the compound `Cc1cccc(OC(C)C(=O)O)c1C` (stereo unspecified), the melting point lay within 123 to 125 °C.
Turning to `Cc1cc(C)nc(C#N)c1`, the melting point was 43 to 45 °C.
The figure for `CC(CCNC(N)=O)c1ccccc1` (stereo unspecified) is 77 to 79 °C.
The figure for `Nc1ccc(S(=O)(=O)Nc2cccnc2)cc1` is 256 to 258 °C; for `CC(=O)c1cc(S(N)(=O)=O)ccc1C` it is 124 to 126 °C.
Then `O=C(CCl)c1ccc(Oc2ccccc2)cc1`, with 54 to 56 °C; and `Cc1ccc(N)cc1S(N)(=O)=O`, with 151 to 153 °C.
For the compound `CC(C)CCNC(=O)C1CCN(C(=O)CCl)CC1`, the melting point is 119 to 121 °C.
Then `COc1cc(C=O)ccc1OCC(=O)N1CCCC1`, with 117 to 119 °C; and `CCOc1cc(C=O)cc(Cl)c1OC`, with 55 to 57 °C.
Then `Cc1c(Cl)cc(S(N)(=O)=O)cc1[N+](=O)[O-]`, with 181 to 183 °C; and `Nc1ccc(Cl)c(C(=O)NC2CCCCC2)c1`, with 159 to 161 °C; and `CN1C(=O)CC(C(=O)O)C1c1cccs1` (stereo unspecified), with 139 to 141 °C.
Then `Cc1cccc(C(CO)N2CCNCC2)c1` (stereo unspecified), with 81 to 83 °C; and `CN1CCc2ccc(S(=O)(=O)Cl)cc21`, with 62 to 64 °C.
In the case of `COc1ccc(N)cc1S(=O)(=O)N(C)C`, the melting point was in the range of 144 to 146 °C.
The figure for `CC(C)c1cc(C(=O)O)nn1C` is 87 to 89 °C; for `O=Cc1ccc(-c2ccc(Cl)c(C(F)(F)F)c2)o1` it is 74 to 76 °C; for `CC(C)(C)c1ccc(C(=O)N2CSCC2C(=O)O)cc1` (stereo unspecified) it is 180 to 182 °C.
Then `O=S(=O)(c1cccnc1)N1CCNCC1`, with 88 to 90 °C; and `Cc1cccc(-c2nnc(CCl)o2)c1`, with 57 to 59 °C.
`NC(=O)CCc1ccc(C(=O)CCl)cc1` gave a melting point of 139 to 141 °C.
Take `Cc1nc(S)c2ccccc2n1`: the melting point fell in the range of 211 to 213 °C.
The figure for `Cn1c(-c2ccccn2)cccc1=O` is 66 to 68 °C; for `CC(Cl)C(=O)Nc1ncccn1` (stereo unspecified) it is 148 to 150 °C.
Then `O=C(O)C1CCn2ccnc2C1` (stereo unspecified), with 231 to 233 °C.
The figure for `COC(=O)NS(=O)(=O)Cl` is 69 to 71 °C.
With `Cc1ccc(-c2csc(=O)[nH]2)cc1`, the melting point lay in the range of 219 to 221 °C.
Then `O=C(O)c1nnn(-c2ccc(F)cc2)c1C(F)(F)F`, with 146 to 148 °C.
Then `CCCc1ccc(-c2ccc(N)cc2)cc1`, with 64 to 66 °C; and `O=C1CN=C(S)N1c1ccccc1`, with 253 to 255 °C; and `O=C(O)CCN1CCCC1=O`, with 109 to 111 °C.
The figure for `N#Cc1cc(N)c(Cl)c([N+](=O)[O-])c1` is 205 to 207 °C; for `CC(=O)N1CCC(O)C1` (stereo unspecified) it is 77 to 79 °C.
The compound `O=C(O)CCc1ccc([N+](=O)[O-])cn1` showed a melting point of 135 to 137 °C.
The figure for `CN1CCN(C(N)=S)CC1` is 179 to 181 °C.
The figure for `Nc1cc(C(=O)O)c2ccccc2c1` is 178 to 180 °C.
The figure for `O=C(O)CCC(=O)c1cccc(F)c1` is 94 to 96 °C.
`O=C(O)COc1ccc(Oc2ccccn2)cc1` came in with a melting point of 154 to 156 °C.
Then `Cc1ccccc1OCc1nnc(S)[nH]1`, with 110 to 112 °C.
`CC(=O)Nc1ccc(Br)c(C(=O)O)n1`: the melting point is 189 to 191 °C.
Then `CC1(C)CC(=O)NC1=O`, with 103 to 105 °C.
Then `O=C(O)c1cc(-c2ccco2)nc2cc(F)ccc12`, with 272 to 274 °C; and `O=C1CC(=O)Nc2cc(S(=O)(=O)Cl)ccc2N1`, with 253 to 255 °C; and `CC(C)COc1ccc(CC(=O)O)cc1`, with 86 to 88 °C.
Then `O=C(O)c1cc2ccccc2c(OCC2CC2)n1`, with 177 to 179 °C; and `O=c1[nH]ccc2occc12`, with 193 to 195 °C; and `O=C(O)CCNC(=O)C1CCCCC1`, with 125 to 127 °C.
Consider `Cc1c(Br)cccc1CO`, for which the melting point was 89 to 91 °C.
Compound `O=[N+]([O-])c1ccc(N2CCC(CO)CC2)nc1` displayed a melting point of 123 to 125 °C.
Then `COC(=O)NCc1ccc(N)cc1`, with 95 to 97 °C; and `O=C(c1ccc(O)cc1)N1CCCC1`, with 168 to 170 °C; and `COC(=O)c1cc(N)ccc1F`, with 84 to 86 °C.
`Cc1c(N)cccc1CN1CCSCC1` registered a melting point of 80 to 82 °C.
As for `O=C(O)CCn1cccc1`, the melting point is 62 to 64 °C.
Then `O=C1CC2(CCCCC2)CN1`, with 89 to 91 °C; and `CCS(=O)(=O)c1cccc(S(=O)(=O)Cl)c1`, with 92 to 94 °C.
The figure for `O=C(Nc1ccccc1F)Nc1cccc2c1CCNC2` is 157 to 159 °C; for `O=C(CCl)Nc1nnc(-c2ccco2)o1` it is 194 to 196 °C.
Then `Nc1cc(C(F)(F)F)ccc1N1CC(C(F)(F)F)OC1=O` (stereo unspecified), with 99 to 101 °C.
In turn, `CCNC(=O)c1cccnc1Cl` showed a melting point of 47 to 49 °C.
Turning to `COc1cc(C(=O)O)ccc1OC(F)F`, the melting point was 171 to 173 °C.
`COc1cc(C(C)N)ccc1OCCO` (stereo unspecified) had a melting point of 103 to 105 °C.
Then `O=C(O)c1cc(O)nc2ccc(S(=O)(=O)N3CCOCC3)cc12`, with 304 to 306 °C.
Then `Cc1ccc(F)c(-n2cc(O)c(C(=O)O)n2)c1`, with 201 to 203 °C; and `Nc1ccc(Oc2ccc(Cl)nn2)cc1`, with 105 to 107 °C.
The figure for `CN(C)S(=O)(=O)c1cccc(CO)c1` is 65 to 67 °C.
On to `Nc1nnc(-c2cnn(-c3ccccc3)c2)o1`, for which the melting point lay within 283 to 285 °C.
The figure for `O=C(O)c1cc(Cl)c(Br)[nH]1` is 168 to 170 °C; for `N#Cc1cccnc1C1CC1` it is 60 to 62 °C.
`O=C(O)CSc1nc2ccccc2o1`: the melting point fell in the range of 158 to 160 °C.
Then `Cc1nnc2[nH]cc(C(=O)NN)cc1-2`, with 289 to 291 °C.
Then `CC1CC(C(=O)O)CC(C)O1` (stereo unspecified), with 109 to 111 °C.
For `O=C(CCl)Nc1ccc(N2CCCC2=O)cc1`, the melting point is 258 to 260 °C.
Then `CC(C)Oc1ccc(C(N)=O)cc1`, with 166 to 168 °C; and `O=C(O)c1nn(-c2cccc(F)c2)ccc1=O`, with 219 to 221 °C.
The figure for `N#Cc1c(N)cc(N)nc1S` is 349 to 351 °C; for `O=C(CSc1ccccc1C(=O)O)c1ccc(-c2ccccc2)cc1` it is 189 to 191 °C; for `Sc1nnc(-c2ccc3ccccc3c2)o1` it is 226 to 228 °C.
Then `CC(=O)NC(Cc1c[nH]c2cc(F)ccc12)C(=O)O` (stereo unspecified), with 181 to 183 °C.
In the case of `O=C(O)c1cc(/C=C/c2cccc(C(F)(F)F)c2)nc2ccc(Br)cc12`, the melting point was 310 to 312 °C.
`OCc1cnc(-c2ccccc2)[nH]1` had a melting point of 154 to 156 °C.
